Source: patent US20040023862A1, “Uses of bombesin receptor 3” (SmithKline Beedham p. l. c., priority 2000, published 2004)
Where two headings read alike, the source gives them in different places. Non-standard residues stand in square brackets, D forms with d. Residues, ends and D or L forms follow the SMILES beside them. *: point of attachment. pGlu = O=C1CC[C@@H](C(=O)O)N1; Nle = CCCC[C@H](N)C(=O)O; βAla = NCCC(=O)O; NHPr = CCCN*

Molecular target: T1, endogenous human BRS-3 in NCI-N417 cells (Homo sapiens, UniProt P32247)
T1 construct: Agonist Pharmacology at the Endogenous Human BRS-3 in NCI-N417 Cells; endogenous in cells; host or cells: NCI-N417 cells
T1 sequence (P32247 1-399): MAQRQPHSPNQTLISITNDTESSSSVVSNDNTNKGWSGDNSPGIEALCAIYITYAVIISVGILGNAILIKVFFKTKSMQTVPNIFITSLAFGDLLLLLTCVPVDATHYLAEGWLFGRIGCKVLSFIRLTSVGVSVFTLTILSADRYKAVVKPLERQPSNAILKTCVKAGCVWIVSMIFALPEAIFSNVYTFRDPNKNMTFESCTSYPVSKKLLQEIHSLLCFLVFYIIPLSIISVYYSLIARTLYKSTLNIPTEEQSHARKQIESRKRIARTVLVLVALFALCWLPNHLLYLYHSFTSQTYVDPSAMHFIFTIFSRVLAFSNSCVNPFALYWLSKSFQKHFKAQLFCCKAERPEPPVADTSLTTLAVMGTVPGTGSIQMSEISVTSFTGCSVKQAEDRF
Test: Agonist pharmacology, FLIPR intracellular calcium (Fluo-3AM) in NCI-N417 cells
Format: cell-based
Method: Agonist Pharmacology at the Endogenous Human BRS-3 in NCI-N417 Cells
NCI-N417 cells were seeded into Costar 96 well black walled plates (30,000 cells per well), cultured overnight in RPMI 1640 medium containing 10% foetal calf serum and 1% L-glutamine, and then loaded with the cytoplasmic calcium indicator Fluo-3AM (4 μM) in the presence of 2.5 mM probenecid at 37° C. for 60 min. The cells were then washed 4× with, and finally resuspended in, Tyrode's medium containing 2.5 mM probenecid. Fluorescence was then monitored using a FLIPR (λEX=488 nm, λEM=540 nm) before and after the addition of various ligands (10 pM-10 μM), as described previously (Smart et al (1999). Br. J. Pharmacol. 128:1-4).

[1] = calcium mobilisation, FLIPR, NCI-N417 cells, efficacy in words

Compound	Efficacy [1]	EC50 [nM]	further results
CSCC[C@H](NC(=O)[C@H](CC(C)C)NC(=O)[C@H](Cc1cnc[nH]1)NC(=O)CNC(=O)[C@@H](NC(=O)[C@H](C)NC(=O)[C@H](Cc1c[nH]c2ccccc12)NC(=O)[C@H](CCC(N)=O)NC(=O)[C@H](CC(N)=O)NC(=O)CNC(=O)[C@H](CC(C)C)NC(=O)[C@H](CCCN=C(N)N)NC(=O)[C@H](CCC(N)=O)NC(=O)[C@@H]1CCC(=O)N1)C(C)C)C(N)=O [Bombesin]			Efficacy (calcium mobilisation, FLIPR, NCI-N417 cells, at 10 μM): 23% at 10 μM
CSCC[C@H](NC(=O)[C@H](Cc1ccccc1)NC(=O)[C@H](Cc1c[nH]cn1)NC(=O)CNC(=O)[C@@H](NC(=O)[C@H](C)NC(=O)[C@H](Cc1c[nH]c2ccccc12)NC(=O)[C@H](CCC(N)=O)NC(=O)[C@@H]1CCCN1C(=O)CNC(=O)CNC(=O)CNC(=O)[C@@H]1CCC(=O)N1)C(C)C)C(N)=O [PG-L] ([pGlu]GGGPQWAVGHFM-NH2; C-terminus assumed)	full		
CSCC[C@H](NC(=O)[C@H](Cc1ccccc1)NC(=O)[C@H](Cc1c[nH]cn1)NC(=O)CNC(=O)[C@@H](NC(=O)[C@H](C)NC(=O)[C@H](Cc1c[nH]c2ccccc12)NC(=O)[C@H](CCC(N)=O)NC(=O)[C@@H]1CCCN1C(=O)[C@@H](NC(=O)[C@@H]1CCC(=O)N1)C(C)C)C(C)C)C(N)=O [Ranantensin] ([pGlu]VPQWAVGHFM-NH2; C-terminus assumed)	full		
CCCC[C@H](NC(=O)[C@H](Cc1ccccc1)NC(=O)[C@H](Cc1c[nH]cn1)NC(=O)CNC(=O)[C@@H](NC(=O)[C@H](C)NC(=O)[C@H](Cc1c[nH]c2ccccc12)NC(=O)[C@H](CCC(N)=O)NC(=O)[C@H](N)Cc1ccccc1)C(C)C)C(N)=O [[D-Phe^1, Nle^9]litorin]	full	1100	
CCCNC(=O)[C@H](Cc1ccccc1)NC(=O)[C@H](Cc1c[nH]cn1)NC(=O)CNC(=O)[C@@H](NC(=O)[C@H](C)NC(=O)[C@H](Cc1c[nH]c2ccccc12)NC(=O)[C@H](CCC(N)=O)NC(=O)[C@H](N)Cc1ccccc1)C(C)C [[D-Phe^6, Phe^13]BN(6-13) propylamide] (H-[dF]QWAVGHF-NHPr; N-terminus assumed)	full	148	
CCCNC(=O)[C@H](CC(C)C)NC(=O)[C@H](Cc1c[nH]cn1)NC(=O)CNC(=O)[C@@H](NC(=O)[C@H](C)NC(=O)[C@H](Cc1c[nH]c2ccccc12)NC(=O)[C@H](CCC(N)=O)NC(=O)[C@H](N)Cc1ccccc1)C(C)C [[D-Phe^6]BN(6-13) propylaniide]	full	1380	
CCCC[C@H](NC(=O)[C@H](Cc1ccccc1)NC(=O)[C@H](Cc1c[nH]cn1)NC(=O)CCNC(=O)[C@@H](NC(=O)[C@H](C)NC(=O)[C@H](Cc1c[nH]c2ccccc12)NC(=O)[C@H](CCC(N)=O)NC(=O)[C@H](N)Cc1ccc(O)cc1)C(C)C)C(N)=O [[D-Tyr^6, βAla^11, Phe^13, Nle^14]Bombesin(6-14)] (H-[dY]QWAV[βAla]HF[Nle]-NH2)	full		
CCCC[C@H](NC(=O)[C@H](Cc1ccccc1)NC(=O)[C@H](Cc1cnc[nH]1)NC(=O)CCNC(=O)[C@@H](NC(=O)[C@H](C)NC(=O)[C@H](Cc1c[nH]c2ccccc12)NC(=O)[C@H](CCC(N)=O)NC(=O)[C@H](N)Cc1ccc(O)cc1)C(C)C)C(N)=O [[D-Tyr^6, βAla^11, Phe^13, Nle^14]Bombesin(6-14)] (H-[dY]QWAV[βAla]HF[Nle]-NH2)			EC50 (calcium mobilisation, FLIPR, NCI-N417 cells, ligands 10 pM-10 μM, read-out: pEG50 (the source's name) (converted)): 9.55 nM
AcNMB(3-10)	full		
